{"source": "paper PMC11099041", "about": "“Tissue distribution and retention drives efficacy of rapidly clearing VHL-based PROTACs” (Communications Medicine, 2024)", "key": {"[1]": {"test": "Protein binding by equilibrium dialysis (plasma, tissue homogenates, DPBS)", "assay_type": "in vitro ADME, rat", "description": "Control plasma was purchased from BioIVT, Hicksville, New York. Pooled plasma was obtained from at least three rats with K2EDTA as the anticoagulant. Control plasma was used to test the suitability of the system and for positive control analysis. Dulbecco’s phosphate-buffered saline (DPBS) (Millipore Sigma, St Louis, Missouri) was used to test the suitability of the system and as the receiver side of the dialysis device. […] The stock solution was added to the matrix (plasma or DPBS) and swirled to mix. The fortified matrix was then incubated at 37 °C for 15 min. Triplicate aliquots of the fortified matrix were analyzed by LSC.\nThe high throughput dialysis apparatus, model HTD96b, was used (HTDialysis LLC, Gales Ferry, Connecticut). Prior to assembly, dialysis membrane strips (molecular weight cutoff of 6–8 kDa) were hydrated, and the Teflon bars were assembled according to manufacturer’s instructions, with dialysis membrane strips laid between bars creating two compartments per well. The assembled unit was locked in place in the steel base plate. A 150 µL aliquot of each fortified matrix (tissue homogenates, plasma, or DPBS) and DPBS were added to the donor and receiver side of the HTD wells in a Teflon plate, respectively, and the plate was sealed. Samples were incubated at 37 °C and rotated at 300 rpm for 7 hours. After incubation, the seal was removed, and tissue homogenates, plasma, or DPBS and dialysate from each device insert were analyzed by LSC. All protein binding determinations were performed in triplicate.\nDialysis was performed accordingly. The radioactivity concentration of the test article in the donor and receiver samples was determined by LSC (count time 60 min) for the calculation of protein binding. […] After the designated time, aliquots of the individual donor and receiver samples were removed and analyzed by LSC. The remaining sample volume was stored at −20 °C.\nDialysis was performed accordingly.\nProtein binding by equilibrium dialysis:1 PercentDrugBound=(Cm-Cd)/Cm×100 2 PercentDrugUnbound=100-PercentBound where: Cd, concentration of test article in dialysate at equilibrium; Cm, Concentration of test article in matrix at equilibrium.\nRecovery from equilibrium dialysis:3 Recovery(%)=(Cm×Vm)+(Cd×Vd)/(Co×Vo)×100 where: Cm, Concentration of test article in matrix at equilibrium; Cd, Concentration of test article in dialysate at equilibrium; Co, Original concentration of test article in matrix prior to loading the dialysis device; Vm, Nominal volume of the matrix at equilibrium; Vd, Nominal volume of the dialysate at equilibrium; Vo, Nominal volume of the original matrix added to the dialysis device."}, "[2]": {"tested_on": "primary human hepatocytes", "test": "Oil-spin hepatocyte uptake assay", "assay_type": "in vitro ADME", "description": "Uptake studies were conducted using the oil-spin method described previously. Cryopreserved primary human hepatocytes (Lot KCN, BioIVT, Hicksville, NY) were thawed at 37 °C and re-suspended in InVitroGro-HT medium (BioIVT, Hicksville, NY). The suspension was centrifuged at 50 × g for 5 minutes at 4 °C, and the resulting pellet was re-suspended to 2 million cells/mL in ice-cold KHB buffer with 10% human serum (BioIVT, Hicksville, NY). The cell suspension was equilibrated to 37 °C in a water bath for 10 minutes with or without inhibitors. At the start of the uptake experiment, 37 °C KHB buffer containing test compounds with or without inhibitors was added to the hepatocyte suspension. At various time points, the uptake was terminated by removing portions of the suspension to microcentrifuge tubes containing a lower […] ammonium acetate layer and an upper mineral/silicone oil layer. For the 4 °C experiment, ice-cold buffer containing test compounds with or without inhibitors was added to ice-cold hepatocyte suspension, and the mixture was incubated on ice for the duration of the experiment. The microcentrifuge tubes were immediately centrifuged at 16,000 × g for 12 seconds. The tubes were then frozen on dry ice. The frozen hepatocyte pellets were cut from the tubes and transferred to −80 °C freezer until LC-MS/MS analysis. […]"}}}
{"smiles": "Cc1ncsc1-c1ccc(C(C)NC(=O)C2CC(O)CN2C(=O)C(c2cc(N3CCC(CN4CCC(OC5CC(Oc6cc(N7C8CCC7CN(c7cc(-[14c]9[14cH][14cH][14cH][14cH][14c]9O)nnc7N)C8)ccn6)C5)CC4)CC3)no2)C(C)C)cc1", "note": "(centres unmarked) [14C-A947]", "values": [{"measurement": "Percent Bound", "setting": "[1]", "result": 99.3, "unit": "%"}, {"measurement": "Percentage bound (mean), Control Plasma", "setting": "[1]", "result": 99.2, "unit": "%"}, {"measurement": "Percentage bound (mean), Kidney", "setting": "[1]", "result": 100, "unit": "%"}, {"measurement": "Percentage bound (mean), Liver", "setting": "[1]", "result": 100, "unit": "%"}, {"measurement": "Percentage bound (mean), Lungs", "setting": "[1]", "result": 99.5, "unit": "%"}, {"measurement": "Percentage bound (mean), Pancreas", "setting": "[1]", "result": 100, "unit": "%"}, {"measurement": "Percentage bound (mean), Plasma (4 hour)", "setting": "[1]", "result": 96.8, "unit": "%"}, {"measurement": "Percentage bound (mean), Plasma (24 hour)", "setting": "[1]", "result": 98.2, "unit": "%"}, {"measurement": "Percentage bound (mean), Plasma (48 hour)", "setting": "[1]", "result": 97.5, "unit": "%"}, {"measurement": "Percentage bound (mean), Prostate Gland", "setting": "[1]", "result": 99.8, "unit": "%"}, {"measurement": "Percentage bound (mean), Spleen", "setting": "[1]", "result": 99.1, "unit": "%"}, {"measurement": "Percentage bound (mean), Thymus", "setting": "[1]", "result": 100, "unit": "%"}, {"measurement": "Fu", "setting": "[1]; rat, plasma", "result": 0.007}, {"measurement": "Percentage unbound (mean), Control Plasma", "setting": "[1]; rat, plasma", "result": 0.795, "unit": "%"}, {"measurement": "Percentage unbound (mean), Plasma (4 hour)", "setting": "[1]; rat, plasma", "result": 0.548, "unit": "%"}, {"measurement": "Percentage unbound (mean), Plasma (24 hour)", "setting": "[1]; rat, plasma", "result": 0.595, "unit": "%"}, {"measurement": "Percentage unbound (mean), Plasma (48 hour)", "setting": "[1]; rat, plasma", "result": 0.863, "unit": "%"}, {"measurement": "Percentage unbound (mean), Liver", "setting": "[1]; rat, tissue homogenate", "result": 0.0298, "unit": "%"}, {"measurement": "Percentage unbound (mean), Lungs", "setting": "[1]; rat, tissue homogenate", "result": 0.09, "unit": "%"}, {"measurement": "Percentage unbound (mean), Pancreas", "setting": "[1]; rat, tissue homogenate", "result": 0.0125, "unit": "%"}, {"measurement": "Percentage unbound (mean), Thymus", "setting": "[1]; rat, tissue homogenate", "result": 0.0426, "unit": "%"}]}
{"smiles": "Cc1ncsc1-c1ccc(C(C)NC(=O)C2CC(O)CN2C(=O)C(c2cc(N3CCC(CN4CCC(OC5CC(Oc6cc(N7C8CCC7CN(c7cc(-c9ccccc9O)nnc7N)C8)ccn6)C5)CC4)CC3)no2)C(C)C)cc1", "note": "(centres unmarked) [A947]", "values": [{"measurement": "Uptake by primary human hepatocytes at 4 °C", "setting": "[2]; 4 °C", "result": "abolished"}, {"measurement": "Temperature-dependent uptake with rifamycin SV", "setting": "[2]; co-administration of 1 mM rifamycin SV", "result": "largely inhibited"}]}
